Measurements taken from patent US20240366526A1, “COMPOSITIONS AND METHODS FOR MAINTAINING OR ENHANCING MICROBIAL BALANCE OF THE SKIN AND MUCOSA” (Reckitt Benckiser Health Limited, priority 2023, published 2024).

Experiments:
Experiment in all cases: MIC determination (EUCAST / ISO 20776 microdilution)
Assay type in all cases: cell-based
[1] = system: Gardnerella vaginalis LF1; details: clinical vaginal isolate; 37° C., microaerophilic, 24 and 48 h; single substance
Excerpt: The strains used were Lactobacillus crispatus LF6 and Lactobacillus gasseri LF7), one strain of Gardnerella vaginalis LF1 and one strain of Candida albicans LF, that correspond to clinical isolates collected from women vaginal cavity. The antimicrobial activity method was based on the current standards described by EUCAST (European Committee on Antimicrobial Susceptibility Testing) and ISO 20776-1 (2006) and ISO 20776-2-(2007) for determining the minimum inhibitory concentration (MIC). Terpinen-4-ol and Carvacrol were emulsified with DMSO (up to 1% (v/v)) in culture medium to obtain a concentration corresponding to 2× higher than the testing one. Sequential dilutions (1:2) were prepared in a sterile 96 wells plate with culture medium. […]
In parallel, calibrated suspensions of microorganisms were prepared with a cell density of 1.0 on the McFarland scale (Lactobacillus spp. and Candida albicans) and 0.13 absorbance (Gardnerella vaginalis), corresponding to 1×10^8 CFU/mL for bacteria (Lactobacillus spp. and Gardnerella vaginalis) and 1×10^6 CFU/mL for yeast (Candida albicans). […]
After homogenization of the working microbial suspension with dilutions of the two ingredients, the 96-well plates were incubated according to the incubation conditions suitable for each microorganism. […] After incubation, the wells were evaluated macroscopically to check for microorganism growth. […]

Candida albicans LF1 = system: Candida albicans LF1
Protocol: (§1) Sequential dilutions (1:2) were prepared in a sterile 96 wells plate with culture medium. All preparations were performed in aseptic conditions. For each of the ingredients tested, 8 concentrations were tested. […] De Man, Rogosa and Sharpe Broth (MRSB) media was used for growth of Lactobacillus spp., New York City III Broth ([…]) media and Roswell Park Memorial Institute 1640 (RPMI-1640) media was used respectively to grow Gardnerella vaginalis and Candida albicans. […] After homogenization of the working microbial suspension with dilutions of the two ingredients, the 96-well plates were incubated according to the incubation conditions suitable for each microorganism. For, L. crispatus and L. gasseri, incubation was done at 37° C. for 24 and 48h in microaerophilic atmosphere. […] After incubation, the wells were evaluated macroscopically to check for microorganism growth. Turbid wells indicated the presence of microbial growth, and clear wells indicated the absence of microbial growth. The lowest concentration tested in which wells without turbidity, correspondent to the minimum inhibitory concentration (MIC). To validate the test, three negative controls (sterility control of the culture medium; study substance dilutions with culture medium; emulsifier with culture medium) and two positive controls (growth control for each microorganism using culture media and growth control for each microorganism using emulsifier with culture media) were performed.

[2] = system: Lactobacillus gasseri LF7
Protocol: as §1

[3] = system: Lactobacillus crispatus LF6
Protocol: as §1

[4] = terpinen-4-ol 2.5 μl/ml and 5 μl/ml

Row | SMILES | MIC for Gardenella vaginalis LF1 [1] | MIC for C. albicans LF1 (Candida albicans LF1; clinical vaginal isolate, 32.5° C., aerophilic, 24 and 48 h, single substance) | effect on Lactobacillus gasseri growth [2, 4] | effect on Lactobacillus crispatus growth [3, 4] | inhibition for C. albicans LF1 (Candida albicans LF1; carvacrol 0.31 μl/ml) | effect on Lactobacillus gasseri growth ([2]; carvacrol 0.31 μl/ml) | effect on Lactobacillus crispatus growth ([3]; carvacrol 0.31 μl/ml)
1 | CC1=CCC(O)(C(C)C)CC1 (centres unmarked) [Terpinen-4-ol] | 2.5 μl/ml | 5 μl/ml | unaffected | unaffected | – | – | –
2 | Cc1ccc(C(C)C)cc1O [Carvacrol, carvacrol] | 0.31 μl/ml | – | – | – | 50% | unaffected | unaffected
